Values of other authors as cited in article PMC3867298 (Clinical cancer research : an official journal of the …, 2010).

Tested on: renal cell carcinoma patients
Details: 375 renal cell carcinoma patients, recommended phase 2 dose; cited from earlier work

In the case of CCN(CC)CCNC(=O)c1c(C)[nH]c(/C=C2\C(=O)Nc3ccc(F)cc32)c1C [sunitinib], the “Patients with at least 1 treatment-related dose reduction” value is listed as 32%.
